Measured values reported in ChEMBL document CHEMBL1146657, “A novel 18 beta-glycyrrhetinic acid analogue as a potent and selective inhibitor of 11 beta-hydroxysteroid dehydrogenase 2” (Bioorg Med Chem Lett, 2004).

What was measured:
[1] = target: 11-beta-hydroxysteroid dehydrogenase 1 (Rattus norvegicus) (UniProt P16232); assay: Percent inhibition against 11-beta-hydroxysteroid dehydrogenase 1 of wistar rat liver cytosol at 10 uM was determined using [3H]cortisone
[2] = target: T1, 11-beta-hydroxysteroid dehydrogenase type 2 (Rattus norvegicus) (UniProt P50233); assay: (§1) Percent inhibition against 11-beta-hydroxysteroid dehydrogenase 2 of wistar rat kidney at 10 uM was determined using [3H]cortisol
T1 sequence (whole entry): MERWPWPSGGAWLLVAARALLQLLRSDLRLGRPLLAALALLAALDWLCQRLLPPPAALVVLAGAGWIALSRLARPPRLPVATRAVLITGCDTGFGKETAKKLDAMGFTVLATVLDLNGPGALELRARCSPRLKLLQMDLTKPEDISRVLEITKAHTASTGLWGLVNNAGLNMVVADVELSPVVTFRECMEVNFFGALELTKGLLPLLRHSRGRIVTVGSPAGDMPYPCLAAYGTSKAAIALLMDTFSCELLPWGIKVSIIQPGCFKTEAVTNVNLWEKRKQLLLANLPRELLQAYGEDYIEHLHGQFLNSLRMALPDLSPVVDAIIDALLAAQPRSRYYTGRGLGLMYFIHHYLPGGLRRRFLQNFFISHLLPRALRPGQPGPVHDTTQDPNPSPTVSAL

[3] = target: T2, 11-beta-hydroxysteroid dehydrogenase type 2 (Rattus norvegicus, UniProt P50233); assay: as §1
T2 sequence (P50233 whole entry): T1 sequence (whole entry)

Chain of 11-beta-hydroxysteroid dehydrogenase 1 (Rattus norvegicus) (P16232 whole entry, looked up): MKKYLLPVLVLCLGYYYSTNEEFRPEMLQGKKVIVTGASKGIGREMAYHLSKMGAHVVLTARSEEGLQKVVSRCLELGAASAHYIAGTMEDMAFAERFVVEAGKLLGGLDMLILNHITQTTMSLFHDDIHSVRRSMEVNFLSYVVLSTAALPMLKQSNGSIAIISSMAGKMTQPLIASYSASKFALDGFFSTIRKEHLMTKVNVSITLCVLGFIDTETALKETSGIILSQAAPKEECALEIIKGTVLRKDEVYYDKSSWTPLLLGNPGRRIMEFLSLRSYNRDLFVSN

SMILES	inhibition [1] [%]	inhibition [2] [%]	IC50 [3] [pM]
CCOC(=O)[C@H](C)NC(=O)[C@@]1(C)CC[C@]2(C)CC[C@]3(C)C(=CC(=O)C4[C@@]5(C)CC[C@H](O)C(C)(C)C5CC[C@]43C)[C@@H]2C1 (some centres not stated)	25	35	–
CC1(C)C2CC[C@]3(C)C(C(=O)C=C4[C@@H]5C[C@@](C)(C(=O)NCCN6CCOCC6)CC[C@]5(C)CC[C@]43C)[C@@]2(C)CC[C@@H]1O (some centres not stated)	19	66	–
CC1(C)C2CC[C@]3(C)C(C(=O)C=C4[C@@H]5C[C@@](C)(C(=O)NC6CCOC6=O)CC[C@]5(C)CC[C@]43C)[C@@]2(C)CC[C@@H]1O (some centres not stated)	71	25	–
CC1(C)C2CC[C@]3(C)C(C(=O)C=C4[C@@H]5C[C@@](C)(C(=O)NN6CCOCC6)CC[C@]5(C)CC[C@]43C)[C@@]2(C)CC[C@@H]1O (some centres not stated)	34	20	–

Now from value to compound:

inhibition [1] [%]	inhibition [2] [%]	IC50 [3] [pM]	SMILES
90	103	–	CC1(C)C2CC[C@]3(C)C(C(=O)C=C4[C@@H]5C[C@@](C)(C(=O)NC6CC6)CC[C@]5(C)CC[C@]43C)[C@@]2(C)CC[C@@H]1O (some centres not stated)
88	98	–	CC1(C)C2CC[C@]3(C)C(C(=O)C=C4[C@@H]5C[C@@](C)(C(=O)NCCCCCO)CC[C@]5(C)CC[C@]43C)[C@@]2(C)CC[C@@H]1O (some centres not stated)
36	92	4	CC1(C)C2CC[C@]3(C)C(C(=O)C=C4[C@@H]5C[C@@](C)(C(=O)NCCO)CC[C@]5(C)CC[C@]43C)[C@@]2(C)CC[C@@H]1O (some centres not stated)
85	101	–	CC1(C)[C@@H](O)CC[C@]2(C)[C@H]3C(=O)C=C4[C@@H]5C[C@@](C)(C(=O)O)CC[C@]5(C)CC[C@@]4(C)[C@]3(C)CC[C@@H]12
